Values joined by “and” are separate entries in the source; they are usually repeats but may differ in a detail not shown here. Identical values can stand only once.
Columns and labels:
[1] = system: L. (L.) infantum promastigotes; assay: In vitro activity on L. (L.) infantum promastigotes, counting viable parasites; format: cell-based, Leishmania (Leishmania) infantum; settings: for IC50: Leishmania infantum, 72 h, 28 °C, read-out: L. (L) infantum promastigotes IC50 ± SD; for L. (L) infantum promastigotes SI: selectivity index CC50/IC50; for activity on L. (L.) infantum promastigotes, in words: free-living form
Protocol: (§1) Epimastigotes of T. cruzi and promastigotes forms of L. […] The inhibition of parasite growth was microscopically determined by counting viable (live) parasites in a haemocytometer using yellow eosin as vital dye; live parasites (uncolored) and dead (orange) were counted. All of the experiments were performed with parasites in their logarithmic phase of growth. […] Negative controls were used without the drug (culture medium alone) in each experiment. […] The data were calculated by linear regression using the software ([…]; GO Business Solution, Guildford, UK). The selectivity index (SI) was calculated dividing CC50/IC50. Each experiment was repeated twice and the values represent the results of one representative experiment. […] The analysis to determine the statistical differences in biological activity was performed using the analysis of variance (ANOVA) and the Bonferroni post-test. We also performed Student's t test for comparison between the two variables, using GraphPad Prism software version 5.03.

T. cruzi epimastigotes = assay: In vitro activity on T. cruzi epimastigotes, counting viable parasites; format: cell-based, Trypanosoma cruzi; settings: for IC50: Trypanosoma cruzi, 72 h, 28 °C, read-out: T. cruzi epimastigotes IC50 ± SD; for T. cruzi epimastigotes SI: selectivity index CC50/IC50; for activity on T. cruzi epimastigotes, in words: free-living form
Protocol: as §1

[2] = Mammalian cell toxicity, MTT, THP-1 cells; format: cell-based; settings: human, THP-1 cells transformed into adherent macrophages with PMA, 72 h, MTT; for CC50 at 72 h: read-out: Mammalian cells THP-1 CC50 ± SD
Protocol: (§2) Vero cells and THP-1 cells transformed into adherent macrophages with PMA in 96 microwell plates where they were treated with compounds (0-350 μM) during 72 h at 37 °C, 5% CO2-95% air mixture. The viability of the cells was evaluated by using the tetrazolium-dye (MTT) colorimetric method. After incubation of the cells with the MTT (5mg/mL) reagent for 4 hours, DMSO was added. The samples were read using an ELISA plate reader at a wavelength of 580 nm. The amount of color produced is directly proportional to the number of viable cells. The percentage of cytotoxicity was calculated by the equation: cytotoxicity (%) = (OD control group-OD treatment group)/OD control group × 100 [31]. […] The data were calculated by linear regression using the software ([…]; GO Business Solution, Guildford, UK). The selectivity index (SI) was calculated dividing CC50/IC50. Each experiment was repeated twice and the values represent the results of one representative experiment. […] The analysis to determine the statistical differences in biological activity was performed using the analysis of variance (ANOVA) and the Bonferroni post-test. We also performed Student's t test for comparison between the two variables, using GraphPad Prism software version 5.03.

[3] = Mammalian cell toxicity, MTT, Vero cells; format: cell-based; settings: African green monkey, Vero cells, 72 h, MTT; for CC50 at 72 h: read-out: Mammalian cells Vero CC50 ± SD
Protocol: as §2

[4] = system: L. (L.) infantum intracellular amastigotes; assay: Intracellular amastigotes of L. (L.) infantum infecting THP-1 macrophages; format: cell-based, Leishmania (Leishmania) infantum; settings: for IC90 / IC50: Leishmania infantum, THP-1 macrophages, 72 h; for IC50: 48.58% cells infected before treatment; for L. (L.) infantum intracellular amastigotes SI: selectivity index CC50/IC50
Protocol: (§3) For the amastigotes assays, adherent Vero cells or THP-1 macrophages (after transformation with 10 ng/mL PMA) were infected with tissue-derived trypomastigotes or stationary phase promastigotes, respectively, at a ratio of 10:1 and maintained in a 5% CO2-95% air mixture at 37 °C. After 24 h, infected cultures with >50% of infected cells were incubated with the compounds (from 3–300 μM) in a three-fold dilution series for 72 h. Drug activity was determined from the % of infected cells in treated and untreated cultures in fixed methanol and Giemsa stained preparations. Parasites’ assays were performed twice and each tested concentration was tested in triplicate.
(§4) Negative controls were used without the drug (culture medium alone) in each experiment.
(§5) The data were calculated by linear regression using the software (Msxlfit; GO Business Solution, Guildford, UK). The selectivity index (SI) was calculated dividing CC50/IC50. Each experiment was repeated twice and the values represent the results of one representative experiment. […] The analysis to determine the statistical differences in biological activity was performed using the analysis of variance (ANOVA) and the Bonferroni post-test. We also performed Student’s t test for comparison between the two variables, using GraphPad Prism software version 5.03. P values <0.05 were considered to be statistically significant.

[5] = system: L.(V.) panamensis intracellular amastigotes; assay: Intracellular amastigotes of L. (V.) panamensis in THP-1 macrophages; format: cell-based, Leishmania (Viannia) panamensis; settings: for IC90 / IC50: THP-1 macrophages, 72 h; for IC50: 78.3% cells infected before treatment; for L.(V.) panamensis intracellular amastigotes SI: selectivity index CC50/IC50
Protocol: as §3, §4, §5

[6] = system: L. (L.) amazonensis intracellular amastigotes; assay: Intracellular amastigotes of L. (L.) amazonensis in THP-1 macrophages; format: cell-based, Leishmania (Leishmania) amazonensis; settings: for IC90 / IC50: Leishmania amazonensis, THP-1 macrophages, 72 h; for IC50: 58.6% cells infected before treatment; for L. (L.) amazonensis intracellular amastigotes SI: selectivity index CC50/IC50
Protocol: as §3, §4, §5

[7] = system: T. cruzi intracellular amastigotes; assay: Intracellular amastigotes of T. cruzi in Vero cells; format: cell-based, Trypanosoma cruzi; settings: for IC90 / IC50: Trypanosoma cruzi, Vero cells, 72 h; for IC50: 98.1% cells infected before treatment; for T. cruzi intracellular amastigotes SI: selectivity index CC50/IC50
Protocol: as §3, §4, §5

Vero cells = assay: Mammalian cell toxicity, MTT, Vero cells; format: cell-based
Protocol: as §2

THP-1 cells = assay: Mammalian cell toxicity, MTT, THP-1 cells; format: cell-based
Protocol: as §2

SMILES | IC50 [1] [µM] | L. (L) infantum promastigotes SI [1] | IC50 (T. cruzi epimastigotes) [µM] | T. cruzi epimastigotes SI (T. cruzi epimastigotes) | CC50 at 72 h [2] [µM] | CC50 at 72 h [3] [µM] | further results
O=C1CSC(c2ccccc2)N1CCN1C(=O)CSC1c1ccccc1 (stereo not drawn) [6a] | 136 ± 6.96 | >1.91 | 237 ± 12.1 | 0.72 | > 250 | 171 ± 3.77 | –
c1cc(CNCCNCc2ccncc2)ccn1 [5h] | 181 ± 1.89 | >2.28 | > 250 | >0.86 | > 413 | 356 ± 37.1 | –
c1ccc(CNCCNCc2ccccc2)cc1 [5a, N^1,N^2-dibenzylethane-1,2-diamine] | 12.2 ± 2.45 | 19.58 | 2.54 ± 0.08 | – | 239 ± 17.9 | 75.3 ± 2.57 | activity on L. (L.) infantum promastigotes, in words [1]: active; activity on T. cruzi epimastigotes, in words (T. cruzi epimastigotes): active; IC90 [4]: 59.5 ± 2.78 µM; IC50 [4]: 25.4 ± 0.33 µM; L. (L.) infantum intracellular amastigotes SI [4]: 9.39 and 9; activity on intracellular amastigotes of L. panamensis, in words [5]: partially active (partially active with IC50 >25 μM and IC90 <100 μM); IC90 [5]: 88.1 ± 1.85 µM; IC50 [5]: 58.2 ± 3.23 µM; L.(V.) panamensis intracellular amastigotes SI [5]: 5; IC90 [6]: 131 ± 9.14 µM; IC50 [6]: 49.3 ± 4.7 µM; L. (L.) amazonensis intracellular amastigotes SI [6]: 6; IC90 [7]: > 123 µM; IC50 [7]: 131.2 ± 0.92 µM; T. cruzi intracellular amastigotes SI [7]: 0.48
O=C1CSC(c2ccncc2)N1CCCCN1C(=O)CSC1c1ccncc1 (stereo not drawn) [6k] | > 250 | >1.0 | > 250 | >1.0 | > 250 | > 250 | –
COc1ccc(CNCCCCNCc2ccc(OC)c(O)c2)cc1O [5e] | > 250 | – | 1.22 ± 0.08 | – | 248 | > 250 | –
CC1CS(=O)(=O)CCN1/N=C/c1ccc([N+](=O)[O-])o1 (stereo not drawn) [Nif, Nifurtimox, reference compound] | – | – | 2.71 ± 0.05 | 28.23 | – | 76.5 ± 3.2 | IC90 [7]: 10.2 ± 1.6 µM; IC50 [7]: 2.34 ± 0.83 µM; T. cruzi intracellular amastigotes SI [7]: 55
O=C1CSC(c2ccccn2)N1CCN1C(=O)CSC1c1ccccn1 (stereo not drawn) [6f] | 176 ± 16 | >1.46 | 161 ± 5.58 | >1.60 | > 250 | > 250 | –
O=C(CCl)NCCNC(=O)CCl [7a] | 176 ± 19 | >2.66 | 65.9 ± 5.54 | 0.38 | > 300 | 25.7 ± 1.22 | CC90 at 72 h [3]: 49.5 ± 1.87 µM; toxicity on Vero cells, in words (Vero cells): toxic
O=C(CCl)NCCCCNC(=O)CCl [7c] | 132 ± 7.63 | 2.76 | 54.2 ± 1.16 | 0.68 | 366 | 37.1 ± 0.45 | CC90 at 72 h [3]: 77.6 ± 3.15 µM; toxicity on Vero cells, in words (Vero cells): toxic
COc1ccc(CNCCNCc2ccc(OC)c(O)c2)cc1O [5d] | 40.2 ± 5.21 | >7.48 | 0.88 ± 0.06 | – | > 300 | > 300 | –
c1ccc(CNCCCNCc2ccccc2)cc1 [5b] | 1.96 ± 0.07 | 86.29 | 5.35 ± 0.27 | 64.2 | 169 ± 29.8 | 343 ± 29.4 | –
O=C1CSC(c2ccncc2)N1CCN1C(=O)CSC1c1ccncc1 (stereo not drawn) [6h] | > 250 | >1.0 | > 250 | >1.0 | > 250 | > 250 | –
c1ccc(CNCCCCNCc2ccccn2)nc1 [5i] | 28.8 ± 5.14 | >12.82 | > 250 | >0.35 | > 300 | 132 ± 12.3 | –
C[C@@H]1[C@H](O)[C@@H](C)/C=C/C=C/C=C/C=C/C=C/C=C/C=C/[C@H](O[C@@H]2O[C@H](C)[C@@H](O)[C@H](N)[C@@H]2O)C[C@@H]2O[C@](O)(C[C@@H](O)C[C@@H](O)[C@H](O)CC[C@@H](O)C[C@@H](O)CC(=O)O[C@H]1C)C[C@H](O)[C@H]2C(=O)O [AmB, Amphotericin B, reference compound] | 0.014 ± 0.001 | 948.57 | – | – | 13.3 ± 1.72 | – | IC90 [4]: 0.138 ± 0.023 µM; IC50 [4]: 0.045 ± 0.007 µM; L. (L.) infantum intracellular amastigotes SI [4]: 360; IC90 [5]: 0.2 ± 0.002 µM; IC50 [5]: 0.032 ± 0.002 µM; L.(V.) panamensis intracellular amastigotes SI [5]: 420; IC90 [6]: 0.2 ± 0.002 µM; IC50 [6]: 0.082 ± 0.002 µM; L. (L.) amazonensis intracellular amastigotes SI [6]: 616
O=C1CSC(c2cccnc2)N1CCCCN1C(=O)CSC1c1cccnc1 (stereo not drawn) [6j] | > 250 | >1.0 | 235 ± 3.06 | 0.32 | > 250 | 75.4 ± 1.8 | –
O=C1CSC(c2cccnc2)N1CCN1C(=O)CSC1c1cccnc1 (stereo not drawn) [6g] | > 250 | >1.0 | > 250 | >1.0 | > 250 | > 250 | –
O=C(CCl)N(CCCCN(Cc1ccccc1)C(=O)CCl)Cc1ccccc1 [compound 8] | 3.91 ± 0.01 | 6.4 | 0.02 ± 0.004 | – | 25.1 ± 0.35 | > 250 | activity on L. (L.) infantum promastigotes, in words [1]: active; activity on T. cruzi epimastigotes, in words (T. cruzi epimastigotes): active; CC90 at 72 h [2]: > 208 µM; toxicity on THP-1 cells, in words (THP-1 cells): partially toxic
O=C(CCl)NCCCNC(=O)CCl [7b] | 76.4 ± 1.05 | 2.07 | 1.01 ± 0.13 | 32.35 | 158 ± 4.53 | 32.7 ± 6.56 | –
c1cncc(CNCCCCNCc2cccnc2)c1 [5j] | 44.2 ± 10.5 | >8.36 | > 250 | >1 | > 300 | > 300 | –
O=C1CSC(c2ccccn2)N1CCCCN1C(=O)CSC1c1ccccn1 (stereo not drawn) [6i] | > 250 | >1.0 | > 250 | >1.0 | > 250 | > 250 | –
O=C1CSC(c2ccccc2)N1CCCCN1C(=O)CSC1c1ccccc1 (stereo not drawn) [6c] | > 250 | >1.0 | > 250 | >1.01 | > 250 | > 250 | –
